Experimental data published in patent US9505709B2, “Compositions and methods relating to ionic salts of peptides” (Thetis Pharmaceuticals LLC, priority 2014, dated 2016).

Tests used:
[1] = Intravenous injection pharmacokinetics, plasma free EPA or free DHA; type: in vivo, Sprague-Dawley rats; conditions: rat
Protocol: Experiments via Intravenous Injection: TP-212 and TP-312 were administered by intravenous injection (20 mg/kg) to Sprague-Dawley rats (n=6/group—3 male and 3 female), and plasma was obtained from serial blood samples taken from each animal at scheduled times ([…]). Blood samples were centrifuged to separate red blood cells and the resulting plasma samples were analyzed for free EPA or free DHA. Free EPA or free DHA was extracted from rat plasma with hexane at acidic condition without hydrolysis. Detection was by MS-MS monitoring of negative ion for EPA or DHA. Calculated pharmacokinetic values are mean values from 6 rats for each study drug.
(§1) For all figures and tables, the data are adjusted as follows for comparative purposes. First, the actual plasma levels are baseline adjusted. Thus, for each study arm, the pre-dose level (time=0) is subtracted from the actual plasma levels at each time point, with negative values adjusted to zero. Second, these baseline adjusted values are further adjusted to be molar dose equivalent on a comparative basis among the study arms with respect to EPA or DHA payload (i.e., as if equal amounts of free fatty acid EPA or DHA are administered in each study arm).

[2] = Stability analysis by 1H NMR of samples exposed to air and light; conditions: ambient temperature
Protocol: Stability analysis was performed using 1H NMR (400 MHz) with acetic acid-d4 at various time point (typically days 1, 14, 30 and 60) using samples exposed to air and light at ambient temperature (clear vials with no caps).

Balb/C mice = test: Ocular irritation after topical dosing to the cornea (hyperemia, squinting, discharge, lid swelling); type: in vivo; conditions: for Hyperemia: 3 μL drop in each eye four times daily for 3 days
Protocol: In an embodiment where the ophthalmic formulation is an aqueous formulation, it has been determined in mice that certain formulations can be administered to the surface of the eye without producing irritation that would make them unsuitable for such application. Irritation parameters of TP-211-1, TP-212-1, TP-311-1 and TP-312-1 related to hyperemia, squinting, and discharge were determined in Balb/C mice. Mice were dosed topically to the cornea using a calibrated micropipette, with a 3 μL drop of treatment in each eye four times daily for 3 consecutive days at various concentrations.
TP-211-1 is Lysyl-lysine EPA. TP-212-1 is Lysyl-lysine bis-EPA. TP-311-1 is Lysyl-lysine DHA. TP-312-1 is Lysyl-lysine bis-DHA. The study drugs were prepared using phosphate buffered saline (PBS) to reach target concentrations ranging from 0.1% to 1.0%.
The animals were monitored for scratching at the eye or any other abnormal behavior post-dose. Ocular exams were conducted on Days 1 and 3 with use of a Micron III camera system to take high resolution videos of the right eye of each animal Clinical signs including but not limited to hyperemia, discharge, lid swelling, and squinting were evaluated by trained personnel who was masked as to group assignment. Each clinical sign was graded on a scale of 0-4, with the exception of lid swelling which was graded on a scale of 0-2. Scores were averaged and are expressed as the mean±SEM for each group. Statistical significance was assessed between the treatment arms and the vehicle group. Any significance is noted by asterisks (*=p<0.05, **=p<0.01, ***=p<0.001).

[3] = Oral pharmacokinetics (oral gavage), plasma free EPA or free DHA; type: in vivo, Sprague-Dawley rats; conditions: rat
Protocol: Experiments via Oral Gavage: Oral pharmacokinetic parameters of TP-212 (Lysyl-Lysine Bis-EPA), TP-312 (Lysyl-Lysine Bis-DHA), EPA-EE, EPA FFA and DHA FFA were determined in Sprague-Dawley rats. EPA-EE is 97% pure ethyl ester form of eicosapentaenoic acid. It is the principal polyunsaturated fatty acid in Vascepa, an Omega-3 compound approved in the U.S. for the treatment of severe hypertriglyceridemia. EPA FFA is 97% pure free fatty acid form of eicosapentaenoic acid and DHA FFA is 98% pure free fatty acid DHA. EPA FFA and DHA FFA are the two principal poly-unsaturated fatty acids in Epanova, an Omega-3 compound approved in the U.S. for the treatment of severe hypertriglyceridemia. The subject drugs were administered by oral gavage as an aqueous solution in de-ionized water to 6 Sprague-Dawley rats per group (3 males and 3 females). Rats were dosed at 40 mg/kg. Blood samples were obtained from each rat by jugular vein catheter. Samples were collected at pre-dose and at 0.25, 0.5, 1, 2, 4, 8, 12 and 18 hours post dose. Blood samples were centrifuged to separate red blood cells and the resulting plasma samples were analyzed for free EPA or free DHA. Free EPA or […] extracted from rat plasma with hexane at acidic condition without hydrolysis. Detection was by MS-MS monitoring of negative ion for EPA or DHA. Calculated pharmacokinetic values are mean values from 6 rats for each study drug.
as §1

[4] = intravenous injection 20 mg/kg, molar dose equivalent, baseline adjusted
[5] = 0.5% concentration in PBS, topical to cornea
[6] = 1.0% concentration in PBS, topical to cornea
[7] = oral gavage 40 mg/kg, molar dose equivalent, baseline adjusted

CC/C=C\C/C=C\C/C=C\C/C=C\C/C=C\CCCC(=O)O.CC/C=C\C/C=C\C/C=C\C/C=C\C/C=C\CCCC(=O)O.NCCCC[C@H](NC(=O)[C@@H](N)CCCCN)C(=O)O [Compound 2, (L,L) Lysyl-lysine bis-EPA]
Tmax (free EPA) ([1]; intravenous injection 20 mg/kg): 1 min | Plasma level of free EPA ([1]; intravenous injection 20 mg/kg, 0 min, molar dose equivalent, baseline adjusted): 0 ng/mL | Plasma level of free EPA ([1]; intravenous injection 20 mg/kg, 1 min, molar dose equivalent, baseline adjusted): 34500 ng/mL | Plasma level of free EPA ([1]; intravenous injection 20 mg/kg, 5 min, molar dose equivalent, baseline adjusted): 6600 ng/mL | Plasma level of free EPA ([1]; intravenous injection 20 mg/kg, 10 min, molar dose equivalent, baseline adjusted): 6400 ng/mL | Plasma level of free EPA ([1]; intravenous injection 20 mg/kg, 15 min, molar dose equivalent, baseline adjusted): 11400 ng/mL | Plasma level of free EPA ([1]; intravenous injection 20 mg/kg, 30 min, molar dose equivalent, baseline adjusted): 8800 ng/mL | Plasma level of free EPA ([1]; intravenous injection 20 mg/kg, 60 min, molar dose equivalent, baseline adjusted): 4600 ng/mL | Plasma level of free EPA ([1]; intravenous injection 20 mg/kg, 120 min, molar dose equivalent, baseline adjusted): 2300 ng/mL | Plasma level of free EPA ([1]; intravenous injection 20 mg/kg, 240 min, molar dose equivalent, baseline adjusted): 1800 ng/mL | AUC 0-1 hrs (free EPA) [1, 4]: 8300 ng·h/mL | AUC 0-4 hrs (free EPA) [1, 4]: 15900 ng·h/mL | Cmax (free EPA) [1, 4]: 34500 ng/mL | AUC over 1 hour (free EPA), times greater than EPApo ([1]; intravenous vs oral gavage): ~13.4 times | AUC over 1 hour (free EPA), times greater than TP-212po ([1]; intravenous vs oral gavage): approximately 1.8 times | AUC over 4 hours (free EPA), times greater than EPApo ([1]; intravenous vs oral gavage): ~5.1 times | AUC over 4 hours (free EPA), times greater than TP-212po ([1]; intravenous vs oral gavage): approximately 1.2 times | Cmax (free EPA), times greater than EPA-FFApo ([1]; intravenous vs oral gavage): ~27 times | Cmax (free EPA), times greater than TP-212po ([1]; intravenous vs oral gavage): approximately 3.6 times | Stability by NMR (amount of sample remaining relative to original sample) ([2]; Day 3): 1 (1 = >95%) | Stability by NMR (amount of sample remaining relative to original sample) ([2]; Day 14): 1 (1 = >95%) | Stability by NMR (amount of sample remaining relative to original sample) ([2]; Day 30): 1 (1 = >95%) | Stability by NMR (amount of sample remaining relative to original sample) ([2]; Day 60): 1 (1 = >95%) | Hyperemia (Balb/C mice; 0.5% concentration in PBS): increase in hyperemia (but not squinting) after the first dose | Squinting (Balb/C mice; [5]): not squinting | Hyperemia (Balb/C mice; 1.0% concentration in PBS): increase in hyperemia (but not squinting) after the first dose | Squinting (Balb/C mice; [6]): not squinting | Irritation, overall conclusion (Balb/C mice; concentrations of less than 1.0%, topical to cornea, repeat dosing): may cause some initial irritation upon the very first installation, but the animals acclimated well to repeat dosing | Hyperemia at last dose / final evaluation (Balb/C mice; concentrations that showed an initial increase or all tested, last dose / final evaluation (Day 3)): returned to baseline levels by the final evaluation | Tmax (free EPA) ([3]; oral gavage 40 mg/kg): 30 min | Plasma level of free EPA ([3]; oral gavage 40 mg/kg, 0 h (pre-dose), molar dose equivalent, baseline adjusted): 0 ng/mL | Plasma level of free EPA ([3]; oral gavage 40 mg/kg, 0.25 h (15 min), molar dose equivalent, baseline adjusted): 300 ng/mL | Plasma level of free EPA ([3]; oral gavage 40 mg/kg, 0.5 h (30 min), molar dose equivalent, baseline adjusted): 9500 ng/mL | Plasma level of free EPA ([3]; oral gavage 40 mg/kg, 1 h (60 min), molar dose equivalent, baseline adjusted): 3900 ng/mL | Plasma level of free EPA ([3]; oral gavage 40 mg/kg, 2 h (120 min), molar dose equivalent, baseline adjusted): 3200 ng/mL | Plasma level of free EPA ([3]; oral gavage 40 mg/kg, 4 h (240 min), molar dose equivalent, baseline adjusted): 1500 ng/mL | Plasma level of free EPA ([3]; oral gavage 40 mg/kg, 8 h, molar dose equivalent, baseline adjusted): 600 ng/mL | Plasma level of free EPA ([3]; oral gavage 40 mg/kg, 12 h, molar dose equivalent, baseline adjusted): 0 ng/mL | Plasma level of free EPA ([3]; oral gavage 40 mg/kg, 18 h, molar dose equivalent, baseline adjusted): 0 ng/mL | AUC 0-1 hrs (free EPA) [3, 7]: 4600 ng·h/mL | AUC 0-4 hrs (free EPA) [3, 7]: 12800 ng·h/mL | AUC 0-18 hrs (free EPA) [3, 7]: 18300 ng·h/mL | Cmax (free EPA) [3, 7]: 9500 ng/mL | AUC over 18 hours (free EPA), times greater than EPA-EE ([3]; oral gavage): approximately 2.6 times | AUC over 18 hours (free EPA), times greater than EPA-FFA ([3]; oral gavage): ~1.8 times | Cmax (free EPA), times greater than EPA-EE ([3]; oral gavage): approximately 8.9 times | Cmax (free EPA), times greater than EPA-FFA ([3]; oral gavage): ~7.4 times

CC/C=C\C/C=C\C/C=C\C/C=C\C/C=C\C/C=C\CCC(=O)O.NCCCC[C@H](NC(=O)[C@@H](N)CCCCN)C(=O)O [Compound 3, (L,L) Lysyl lysine DHA (mono)]
Stability by NMR (amount of sample remaining relative to original sample) ([2]; Day 3): 1 (1 = >95%) | Stability by NMR (amount of sample remaining relative to original sample) ([2]; Day 14): 1 (1 = >95%) | Stability by NMR (amount of sample remaining relative to original sample) ([2]; Day 30): 1 (1 = >95%) | Stability by NMR (amount of sample remaining relative to original sample) ([2]; Day 60): 1 (1 = >95%) | Hyperemia (Balb/C mice; 0.5% concentration in PBS): did not cause any increase in hyperemia or squinting throughout | Squinting (Balb/C mice; [5]): did not cause any increase in hyperemia or squinting throughout | Hyperemia (Balb/C mice; 1.0% concentration in PBS): elevated hyperemia after the first dose administration | Squinting (Balb/C mice; [6]): no increase in squinting levels | Concentration at which not irritating / well tolerated (Balb/C mice; topical to cornea four times daily for 3 days): less than 1.0%
